Three substances from US20260078341A1, “TREATMENT OF CANCER USING CHIMERIC ANTIGEN RECEPTOR” (Novartis AG, priority 2014, published 2026) can be followed below.

The subject of the experiment is SKOV3. The experiment can be described thus: SKOV3 ovarian tumor model, C4-27z CAR-T cells plus exogenous cytokines. Type of experiment: in vivo, NSG mice. The following applies: for antitumor efficacy of cytokine in combination with CAR-T cell injection: 5 μg daily i.p. for 7 days with 5×10^6 C4-27z CAR-T cells.

Entries after “also recorded” stand apart in the source; their conditions may differ.

As to “IL-15: common γ-chain family cytokine, exogenous”, the “antitumor efficacy of cytokine in combination with CAR-T cell injection” value (from here on “antitumor efficacy of cytokine”) is given as “best tumor suppression”. The “CD4+ and CD8+ T cells in peripheral blood” value (15 days after adoptive transfer) was “Highest numbers of CD4+ and CD8+ T cells”. In addition, the “human T cell number in the tumor” value (73 days after tumor challenge) is given as “highest T cell number in the tumor”.
As to “IL-18: immunostimulatory, proinflammatory cytokine belonging to the IL-1 family”, the “antitumor efficacy of cytokine” value is “heaviest tumor burden; also recorded: no enhanced effect on antitumor efficacy”.
Turning to “IL-21: common γ-chain family cytokine, exogenous”, the “antitumor efficacy of cytokine” value is reported as “best tumor suppression”.
